Test results published in patent publication US9079866B2, “Flap modulators” (JANSSEN PHARMACEUTICA NV, priority 2013, dated 2015).
Where a name gives a salt, the structure may show the parent alone. Read-outs that look alike come from different tables or passages of the source.

How the values were obtained:
[1] = tested on: leukotriene pathway in human whole blood (LTB4 levels); experiment: Human whole blood assay (A23187-stimulated LTB4); assay type: cell-based; details: Homo sapiens, read-out: LTB4 IC50 1:1
Outline: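 Blood (heparin) diluted 1:1 RPMI; compound pre-incubation 15 min, 37° Celsius; A23187 7 μg/mL, 30 min, 37° Celsius; plasma LTB4 by commercial kit. IC50 via 4-parameter equation.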

human FLAP = human FLAP (Homo sapiens (Human), UniProt P20292); experiment: FLAP binding assay (HTRF format)
human FLAP, sequence (P20292 whole entry): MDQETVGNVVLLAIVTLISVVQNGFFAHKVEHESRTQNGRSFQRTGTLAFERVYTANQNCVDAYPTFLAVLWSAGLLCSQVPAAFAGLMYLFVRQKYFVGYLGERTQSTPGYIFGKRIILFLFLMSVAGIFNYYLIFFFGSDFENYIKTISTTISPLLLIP
Outline: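 Binding of compounds to FLAP read out as HTRF ratio. Values are the mean of two assay plates, each sample run in duplicate per plate.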

[2] = human whole blood diluted 1:1 in RPMI, A23187-stimulated LTB4
[3] = read-out: FLAP Binding wild type HTRF Ki
[4] = human FLAP wild type, HTRF format, average of two plates, duplicates
[5] = human whole blood diluted 1:1, A23187-stimulated

Row | Compound | IC50 [1, 2] [nM] | Ki (human FLAP; [4]) [nM] | IC50 [1, 5] [nM] | Ki (human FLAP; wild type FLAP, HTRF format) [nM] | further results
1 | Nc1cnc(-c2ccc(-c3ccccc3CS(=O)(=O)N[C@H]3CC[C@H](O)CC3)cc2F)cn1 [Example 226, 1-[4′-(5-Aminopyrazin-2-yl)-3′-fluorobiphenyl-2-yl]-N-(trans-4-hydroxycyclohexyl)-methanesulfonamide formic acid salt] | 329 | – | – | – | Ki (human FLAP; [3]): 211 nM
2 | Nc1cnc(-c2ccc(-c3ccccc3S(=O)(=O)N3CCN4CCCC4C3)cc2F)cn1 (racemic) [Example 61, racemic 5-[3-Fluoro-2′-(hexahydropyrrolo[1,2-a]pyrazin-2(1H)-ylsulfonyl)biphenyl-4-yl]pyrazin-2-amine] | 117 | 11 | – | – | –
3 | Nc1cnc(-c2ccc(-c3ccccc3N3CCCCS3(=O)=O)cc2F)cn1 [Example 857, 5-[2′-(1,1-Dioxido-1,2-thiazinan-2-yl)-3-fluorobiphenyl-4-yl]pyrazin-2-amine] | – | – | 205 | 28 | –
4 | CCN(CC)S(=O)(=O)c1ccccc1-c1ccc(-c2cnc3c(c2)OCCN3)c(F)c1 [Example 391, 4′-(3,4-Dihydro-2H-pyrido[3,2-b][1,4]oxazin-7-yl)-N,N-diethyl-3′-fluorobiphenyl-2-sulfonamide] | 56 | 2 | – | – | –
5 | CC[C@@H](CO)NS(=O)(=O)c1ccccc1-c1ccc(-c2cnc(N)nc2)c(F)c1 [Example 248, 4′-(2-Aminopyrimidin-5-yl)-3′-fluoro-N-[(1S)-1-(hydroxymethyl)propyl]biphenyl-2-sulfonamide] | 124 | 50 | – | – | –
6 | C[Si](C)(C)CCOCOc1cc(C(F)(F)F)ccc1-c1ccc(-c2cnc(N)nc2)c(F)c1 [Example 557, 5-[3-Fluoro-4′-(trifluoromethyl)-2′-{[2-(trimethylsilyl)ethoxy]methoxy}biphenyl-4-yl]-pyrimidin-2-amine] | – | – | – | 147 | IC50 [1]: 1070 nM
7 | CC(C)CS(=O)(=O)Nc1ccccc1-c1ccc(-c2cnc3[nH]ccc3n2)c(F)c1 [Example 495, N-[3′-Fluoro-4′-(5H-pyrrolo[2,3-b]pyrazin-2-yl)biphenyl-2-yl]-2-methylpropane-1-sulfonamide] | – | – | 509 | 4 | –
8 | CCS(=O)(=O)N(C)c1ccccc1-c1ccc(-c2cnc(N)cn2)c(F)c1 [Example 494, N-[4′-(5-Aminopyrazin-2-yl)-3′-fluorobiphenyl-2-yl]-N-methylethanesulfonamide] | – | – | 99 | 32 | –
9 | CC(CO)NS(=O)(=O)c1ccccc1-c1ccc(-c2cnc3[nH]ccc3n2)c(F)c1 (stereo in doubt) [Example 378, 3′-Fluoro-N-[(1R)-2-hydroxy-1-methylethyl]-4′-(5H-pyrrolo[2,3-b]pyrazin-2-yl)biphenyl-2-sulfonamide] | 16 | 1 | – | – | –
10 | Nc1ncc(-c2ccc(-c3ccccc3S(=O)(=O)N3CCC[C@H]3CO)cc2F)cn1 [Example 277, [(2S)-1-{[4′-(2-Aminopyrimidin-5-yl)-3′-fluorobiphenyl-2-yl]sulfonyl}pyrrolidin-2-yl]methanol trifluoroacetic acid salt] | > 1000 | 52 | – | – | –
11 | CC(CO)NS(=O)(=O)c1ccccc1-c1ccc(-c2cnc(N)c(C#N)n2)c(F)c1 (stereo in doubt) [Example 410, 4′-(5-amino-6-cyanopyrazin-2-yl)-3′-fluoro-N-[(1R)-2-hydroxy-1-methylethyl]biphenyl-2-sulfonamide] | – | – | 88 | 4 | –
12 | CC(CO)Oc1ncccc1-c1ccc(-c2cnc(N)cn2)c(F)c1 (stereo in doubt) [Example 657, (2S)-2-({3-[4-(5-Aminopyrazin-2-yl)-3-fluorophenyl]pyridin-2-yl}oxy)propan-1-ol] | – | – | 2340 | 73.5 | –
13 | CC(C)(C)NS(=O)(=O)c1ccccc1-c1ccc(-c2ccc3nccnc3c2)c(F)c1 [Example 420, N-tert-Butyl-3′-fluoro-4′-quinoxalin-6-ylbiphenyl-2-sulfonamide] | – | – | 3280 | 86 | –
14 | Nc1cnc(-c2ccc(-c3ccccc3S(=O)(=O)N[C@@H]3CCCC[C@H]3O)cc2F)cn1 [Example 85, 4′-(5-Aminopyrazin-2-yl)-3′-fluoro-N-[(1R,2R)-2-hydroxycyclohexyl]biphenyl-2-sulfonamide] | 20 | 2 | – | – | –
15 | Nc1ncc(-c2ccc(-c3cccnc3O[C@H]3CC[C@H](N)CC3)cc2F)cn1 [Example 651, 5-(4-{2-[(trans-4-Aminocyclohexyl)oxy]pyridin-3-yl}-2-fluorophenyl)pyrimidin-2-amine] | – | – | 1540 | 306 | –
16 | Nc1cnc(-c2ccc(-c3ccccc3S(=O)(=O)Nc3ccc(C(F)(F)F)nc3)cc2F)cn1 [Example 163, 4′-(5-Aminopyrazin-2-yl)-3′-fluoro-N-[6-(trifluoromethyl)pyridin-3-yl]biphenyl-2-sulfonamide] | 595 | 1 | – | – | –
17 | Nc1cnc(-c2ccc(-c3ccccc3S(=O)(=O)NCC3CNC3)cc2F)cn1 [Example 125, 4′-(5-Aminopyrazin-2-yl)-N-(azetidin-3-ylmethyl)-3′-fluorobiphenyl-2-sulfonamide] | > 10000 | 50 | – | – | –

Row | Compound | IC50 [1, 2] [nM] | Ki (human FLAP; [4]) [nM] | IC50 [1, 5] [nM] | Ki (human FLAP; wild type FLAP, HTRF format) [nM] | further results
18 | C[C@@H](NC(=O)c1cc(C(F)(F)F)ccc1-c1ccc(-c2cnc(N)nc2)c(F)c1)C(F)(F)F [Example 789, 2-[4-(2-Aminopyrimidin-5-yl)-3-fluoro-phenyl]-5-(trifluoromethyl)-N-[(1R)-2,2,2-trifluoro-1-methyl-ethyl]benzamide] | – | – | 939 | 130 | –
19 | Nc1ncc(-c2ccc(-c3ccc(C(F)(F)F)cc3Oc3ncccn3)cn2)cn1 [Example 564, 5-{5-[2-(Pyrimidin-2-yloxy)-4-(trifluoromethyl)phenyl]pyrridn-2-yl}pyrimidin-2-amine] | – | – | 583 | 200 | –
20 | CCS(=O)(=O)Nc1ccccc1-c1ccc(-c2cnc(N)cn2)c(F)c1 [Example 35, N-[4′-(5-Aminopyrazin-2-yl)-3′-fluorobiphenyl-2-yl]ethanesulfonamide] | 94 | 36 | – | – | –
21 | CC(C)Oc1ncccc1-c1ccc(-c2cnc(N)nc2)c(F)c1 [Example 408, 5-{2-Fluoro-4-[2-(1-methylethoxy)pyridin-3-yl]phenyl}pyrimidin-2-amine] | – | – | 1140 | 128 | –
22 | Nc1cnc(-c2ccc(-c3cccnc3S(=O)(=O)C3CCOCC3)cc2F)cn1 [Example 830, 5-{2-Fluoro-4-[2-(tetrahydro-2H-pyran-4-ylsulfonyl)pyridin-3-yl]phenyl}pyrazin-2-amine hydrochloride] | – | – | 5.55 | 2.9 | –
23 | Nc1cnc(-c2ccc(-c3ccc(C(F)(F)F)cc3-c3cnc(N)nc3)cc2F)cn1 [Example 853, 5-[4′-(5-Aminopyrazin-2-yl)-3′-fluoro-4-(trifluoromethyl)biphenyl-2-yl]pyrimidin-2-amine] | – | – | 45.6 | 4.7 | –
24 | Cc1ccnc(Oc2ccccc2-c2ccc(-c3cnc(N)cn3)c(F)c2)n1 [Example 545, 5-{3-Fluoro-2′-[(4-methylpyrimidin-2-yl)oxy]biphenyl-4-yl}pyrazin-2-amine] | – | – | 50 | 12 | –
25 | CN(C)S(=O)(=O)Nc1ccccc1-c1ccc(-c2cnc(N)cn2)c(F)c1 [Example 182, N′-[4′-(5-Aminopyrazin-2-yl)-3′-fluorobiphenyl-2-yl]-N,N-dimethylsulfamide] | 217 | 20 | – | – | –
26 | Nc1cnc(-c2ccc(-c3ccccc3S(=O)(=O)N3CCN(C(=O)C4CC4)CC3)cc2F)cn1 [Example 58, 5-(2′-{[4-(Cyclopropylcarbonyl)piperazin-1-yl]sulfonyl}-3-fluorobiphenyl-4-yl)pyrazin-2-amine] | 991 | 5 | – | – | –
27 | CCN(CC)S(=O)(=O)c1ccccc1-c1ccc(-c2cnc3[nH]ccc3n2)c(F)c1 [Example 373, N,N-Diethyl-3′-fluoro-4′-(5H-pyrrolo[2,3-b]pyrazin-2-yl)biphenyl-2-sulfonamide] | 7 | 1 | – | – | –
28 | CS(=O)(=O)c1cc(C(F)(F)F)ccc1-c1ccc(-c2cnc(N)cn2)c(F)c1 [Example 207, 5-[3-Fluoro-2′-(methylsulfonyl)-4′-(trifluoromethyl)biphenyl-4-yl]pyrazin-2-amine] | 205 | 17 | – | – | –
29 | Cc1nc(-c2ccc(-c3ccccc3S(=O)(=O)NC(C)(C)C)cc2F)cnc1N [Example 445, 4′-(5-Amino-6-methylpyrazin-2-yl)-N-tert-butyl-3′-fluorobiphenyl-2-sulfonamide] | – | – | 8 | 1 | –
30 | Nc1cnc(-c2ccc(-c3ccccc3S(=O)(=O)NC3CCCC3)cc2F)cn1 [Example 14, 4′-(5-Aminopyrazin-2-yl)-N-cyclopentyl-3′-fluorobiphenyl-2-sulfonamide] | 32 | 3 | – | – | –
31 | CC(C)S(=O)(=O)c1ncccc1-c1ccc(-c2cnc(N)cn2)c(F)c1 [Example 395, 5-(2-Fluoro-4-{2-[(1-methylethyl)sulfonyl]pyridin-3-yl}phenyl)pyrazin-2-amine] | – | – | 32 | 9 | –
32 | CC(C)CS(=O)(=O)Nc1ccccc1-c1ccc(-c2cnc(N)cn2)c(F)c1 [Example 37, N-[4′-(5-Aminopyrazin-2-yl)-3′-fluorobiphenyl-2-yl]-2-methylpropane-1-sulfonamide] | 676 | 30 | – | – | –
33 | CC(C)(O)CNS(=O)(=O)c1ccccc1-c1ccc(-c2cnc(N)nc2)c(F)c1 [Example 272, 4′-(2-Aminopyrimidin-5-yl)-3′-fluoro-N-(2-hydroxy-2-methylpropyl)biphenyl-2-sulfonamide trifluoroacetic acid salt] | 125 | – | – | – | Ki (human FLAP; [3]): 32 nM
